Measurements from ChEMBL document CHEMBL3272091, “Ergot alkaloids. Synthesis of 6-alkyl-8-ergolenes and 6-methyl-8-aminoergolines as potential prolactin inhibitors” (1977).
Calls of active or inactive are those of the source. No cut-off for these calls is given here.

Experiments:
Rattus norvegicus [1] = assay: Prolactin inhibition ability in Sprague-Dawley rat at 10 ug/ml, ip administered 18 hrs post reserpine treatment measured after 1 hr by RIA relative to ergoconine; assay type: functional
Rattus norvegicus [2] = assay: Prolactin inhibition ability in Sprague-Dawley rat at 10 ug/ml, ip administered 18 hrs post reserpine treatment measured after 1 hr by RIA; assay type: functional
Rattus norvegicus [3] = assay: Prolactin inhibition ability in Sprague-Dawley rat at 10 ug/ml, ip administered 18 hrs post reserpine treatment measured after 1 hr by RIA relative to lergotrile; assay type: functional
Rattus norvegicus [4] = assay: Prolactin stimulation ability in Sprague-Dawley rat at 10 ug/ml, ip administered 18 hrs post reserpine treatment measured after 1 hr by RIA; assay type: functional, organism-based

SMILES | inhibition (INH) (Rattus norvegicus [1]) | inhibition (INH) (Rattus norvegicus [2]) | inhibition (INH) (Rattus norvegicus [3]) | inhibition (Rattus norvegicus [4])
N#CN1CC(CO)=C[C@@H]2c3cccc4[nH]cc(c34)C[C@H]21 | 67% | 25% |  | 
CCCN1CC(CO)=C[C@@H]2c3cccc4[nH]cc(c34)C[C@H]21 |  | 72% | 77% | 
CCOC(=O)CN1CC(CO)=C[C@@H]2c3cccc4[nH]cc(c34)C[C@H]21 |  | 14% | 77% | 
OCC1=C[C@@H]2c3cccc4[nH]cc(c34)C[C@H]2N(Cc2ccccc2)C1 |  |  | 60% | 
CN1CC(CO)=C[C@@H]2c3cccc4[nH]cc(c34)C[C@H]21 | 75% | 71% |  | 
CCN1CC(CO)=C[C@@H]2c3cccc4[nH]cc(c34)C[C@H]21 |  | 63% | 77% | 
CC(=O)N1CC(CO)=C[C@@H]2c3cccc4[nH]cc(c34)C[C@H]21 |  |  |  | Active
OCC1=C[C@@H]2c3cccc4[nH]cc(c34)C[C@H]2NC1 | 67% | 58% |  | 
CN1C[C@H](NC(=O)CCl)C[C@@H]2c3cccc4[nH]cc(c34)C[C@H]21 |  |  |  | Active
CN1C[C@H](NC(=O)CBr)C[C@@H]2c3cccc4[nH]cc(c34)C[C@H]21 |  |  |  | Active
CN1C[C@H](N)C[C@@H]2c3cccc4[nH]cc(c34)C[C@H]21 |  | 57% |  | 
CCC(=O)N1CC(CO)=C[C@@H]2c3cccc4[nH]cc(c34)C[C@H]21 |  |  | 77% | 
